# Measured values from PMC10879502, “Linking ATP and allosteric sites to achieve superadditive binding with bivalent EGFR kinase inhibitors” (Communications Chemistry, 2024).
# Key:
# Assay in all cases: KINOMEscan
# Format in all cases: binding
# Conditions in all cases: 1 μM
# TLK2 = molecular target: T1, TLK2 (Homo sapiens, UniProt Q86UE8)
# T1 construct: purchased Eurofins DiscoverX Corporation
# MARK2 = molecular target: T2, MARK2 (Homo sapiens, UniProt Q7KZI7)
# T2 construct: purchased Eurofins DiscoverX Corporation
# MERTK = molecular target: T3, MERTK (Homo sapiens, UniProt Q12866)
# T3 construct: purchased Eurofins DiscoverX Corporation
# RIPK4 = RIPK4 (Homo sapiens, UniProt P57078)
# Chain of RIPK4 (P57078 whole entry): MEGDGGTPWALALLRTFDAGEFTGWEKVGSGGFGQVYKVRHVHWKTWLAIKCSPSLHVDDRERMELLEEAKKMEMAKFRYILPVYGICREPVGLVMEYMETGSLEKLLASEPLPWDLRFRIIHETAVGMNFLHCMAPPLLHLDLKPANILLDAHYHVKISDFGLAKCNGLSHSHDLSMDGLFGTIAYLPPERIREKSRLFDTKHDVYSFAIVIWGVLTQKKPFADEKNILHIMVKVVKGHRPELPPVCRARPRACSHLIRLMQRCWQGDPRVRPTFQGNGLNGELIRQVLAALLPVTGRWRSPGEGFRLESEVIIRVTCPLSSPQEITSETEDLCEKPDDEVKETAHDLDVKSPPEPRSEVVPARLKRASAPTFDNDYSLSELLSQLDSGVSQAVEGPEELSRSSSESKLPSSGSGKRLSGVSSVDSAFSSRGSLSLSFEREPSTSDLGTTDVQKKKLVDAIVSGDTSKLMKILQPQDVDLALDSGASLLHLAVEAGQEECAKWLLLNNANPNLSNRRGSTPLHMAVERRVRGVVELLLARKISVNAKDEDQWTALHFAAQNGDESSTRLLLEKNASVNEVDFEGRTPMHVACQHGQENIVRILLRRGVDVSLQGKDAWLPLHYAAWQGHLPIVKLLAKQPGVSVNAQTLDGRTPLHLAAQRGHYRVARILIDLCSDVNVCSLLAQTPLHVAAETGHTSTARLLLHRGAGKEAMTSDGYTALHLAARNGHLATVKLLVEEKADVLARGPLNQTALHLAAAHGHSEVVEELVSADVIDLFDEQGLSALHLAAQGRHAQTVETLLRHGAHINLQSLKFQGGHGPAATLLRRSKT
# [1] = molecular target: T4, ABL1(Y253F)-phosphorylated (Homo sapiens, UniProt P00519, Y253F)
# T4 construct: purchased Eurofins DiscoverX Corporation
# p38-delta = p38-delta (Homo sapiens, UniProt O15264)
# Chain of p38-delta (O15264 whole entry): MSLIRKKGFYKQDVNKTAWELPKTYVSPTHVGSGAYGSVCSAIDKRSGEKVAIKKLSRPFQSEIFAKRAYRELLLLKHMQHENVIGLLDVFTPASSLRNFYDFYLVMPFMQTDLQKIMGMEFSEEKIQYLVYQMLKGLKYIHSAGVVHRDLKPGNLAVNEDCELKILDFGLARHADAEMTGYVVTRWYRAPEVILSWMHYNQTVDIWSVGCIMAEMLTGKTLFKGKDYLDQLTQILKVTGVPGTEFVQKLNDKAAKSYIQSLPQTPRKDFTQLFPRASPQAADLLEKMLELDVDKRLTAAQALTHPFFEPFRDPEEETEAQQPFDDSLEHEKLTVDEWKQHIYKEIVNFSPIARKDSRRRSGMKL
# ERK4 = ERK4 (Homo sapiens, UniProt P31152)
# [2] = molecular target: RPS6KA4(Kin.Dom.1-N-terminal) (Homo sapiens, UniProt O75676)
# [3] = molecular target: RSK3(Kin.Dom.1-N-terminal) (Homo sapiens, UniProt Q15349)
# FLT3(D835V) = FLT3(D835V) (Homo sapiens, UniProt P36888, D835V)
# CSNK1A1 = CSNK1A1 (Homo sapiens, UniProt P48729)
# EGFR(L747-T751del+Sins) = tested on: EGFR(L747-T751del+Sins)
# BIKE = BIKE (Homo sapiens, UniProt Q9NSY1)
# RIPK1 = RIPK1 (Homo sapiens, UniProt Q13546)
# FLT3(D835H) = FLT3(D835H) (Homo sapiens, UniProt P36888, D835H)
# SGK = SGK (Homo sapiens, UniProt O00141)
# CAMKK2 = molecular target: T5, CAMKK2 (Homo sapiens, UniProt Q96RR4)
# T5 construct: purchased Eurofins DiscoverX Corporation (KINOMEscan)
# p38-alpha = p38-alpha (Homo sapiens, UniProt Q16539)
# MRCKB = molecular target: T6, MRCKB (Homo sapiens, UniProt Q9Y5S2)
# T6 construct: purchased Eurofins DiscoverX Corporation
# MINK = molecular target: T7, MINK (Homo sapiens, UniProt Q8N4C8)
# T7 construct: purchased Eurofins DiscoverX Corporation
# PRKD3 = PRKD3 (Homo sapiens, UniProt O94806)
# TAOK3 = molecular target: T8, TAOK3 (Homo sapiens, UniProt Q9H2K8)
# T8 construct: purchased Eurofins DiscoverX Corporation
# EGFR(L747-E749del+A750P) = EGFR(L747-E749del+A750P) (Homo sapiens, UniProt P00533, A750P/DEL747-749)
# WNK2 = WNK2 (Homo sapiens, UniProt Q9Y3S1)
# Chain of WNK2 (Q9Y3S1 whole entry): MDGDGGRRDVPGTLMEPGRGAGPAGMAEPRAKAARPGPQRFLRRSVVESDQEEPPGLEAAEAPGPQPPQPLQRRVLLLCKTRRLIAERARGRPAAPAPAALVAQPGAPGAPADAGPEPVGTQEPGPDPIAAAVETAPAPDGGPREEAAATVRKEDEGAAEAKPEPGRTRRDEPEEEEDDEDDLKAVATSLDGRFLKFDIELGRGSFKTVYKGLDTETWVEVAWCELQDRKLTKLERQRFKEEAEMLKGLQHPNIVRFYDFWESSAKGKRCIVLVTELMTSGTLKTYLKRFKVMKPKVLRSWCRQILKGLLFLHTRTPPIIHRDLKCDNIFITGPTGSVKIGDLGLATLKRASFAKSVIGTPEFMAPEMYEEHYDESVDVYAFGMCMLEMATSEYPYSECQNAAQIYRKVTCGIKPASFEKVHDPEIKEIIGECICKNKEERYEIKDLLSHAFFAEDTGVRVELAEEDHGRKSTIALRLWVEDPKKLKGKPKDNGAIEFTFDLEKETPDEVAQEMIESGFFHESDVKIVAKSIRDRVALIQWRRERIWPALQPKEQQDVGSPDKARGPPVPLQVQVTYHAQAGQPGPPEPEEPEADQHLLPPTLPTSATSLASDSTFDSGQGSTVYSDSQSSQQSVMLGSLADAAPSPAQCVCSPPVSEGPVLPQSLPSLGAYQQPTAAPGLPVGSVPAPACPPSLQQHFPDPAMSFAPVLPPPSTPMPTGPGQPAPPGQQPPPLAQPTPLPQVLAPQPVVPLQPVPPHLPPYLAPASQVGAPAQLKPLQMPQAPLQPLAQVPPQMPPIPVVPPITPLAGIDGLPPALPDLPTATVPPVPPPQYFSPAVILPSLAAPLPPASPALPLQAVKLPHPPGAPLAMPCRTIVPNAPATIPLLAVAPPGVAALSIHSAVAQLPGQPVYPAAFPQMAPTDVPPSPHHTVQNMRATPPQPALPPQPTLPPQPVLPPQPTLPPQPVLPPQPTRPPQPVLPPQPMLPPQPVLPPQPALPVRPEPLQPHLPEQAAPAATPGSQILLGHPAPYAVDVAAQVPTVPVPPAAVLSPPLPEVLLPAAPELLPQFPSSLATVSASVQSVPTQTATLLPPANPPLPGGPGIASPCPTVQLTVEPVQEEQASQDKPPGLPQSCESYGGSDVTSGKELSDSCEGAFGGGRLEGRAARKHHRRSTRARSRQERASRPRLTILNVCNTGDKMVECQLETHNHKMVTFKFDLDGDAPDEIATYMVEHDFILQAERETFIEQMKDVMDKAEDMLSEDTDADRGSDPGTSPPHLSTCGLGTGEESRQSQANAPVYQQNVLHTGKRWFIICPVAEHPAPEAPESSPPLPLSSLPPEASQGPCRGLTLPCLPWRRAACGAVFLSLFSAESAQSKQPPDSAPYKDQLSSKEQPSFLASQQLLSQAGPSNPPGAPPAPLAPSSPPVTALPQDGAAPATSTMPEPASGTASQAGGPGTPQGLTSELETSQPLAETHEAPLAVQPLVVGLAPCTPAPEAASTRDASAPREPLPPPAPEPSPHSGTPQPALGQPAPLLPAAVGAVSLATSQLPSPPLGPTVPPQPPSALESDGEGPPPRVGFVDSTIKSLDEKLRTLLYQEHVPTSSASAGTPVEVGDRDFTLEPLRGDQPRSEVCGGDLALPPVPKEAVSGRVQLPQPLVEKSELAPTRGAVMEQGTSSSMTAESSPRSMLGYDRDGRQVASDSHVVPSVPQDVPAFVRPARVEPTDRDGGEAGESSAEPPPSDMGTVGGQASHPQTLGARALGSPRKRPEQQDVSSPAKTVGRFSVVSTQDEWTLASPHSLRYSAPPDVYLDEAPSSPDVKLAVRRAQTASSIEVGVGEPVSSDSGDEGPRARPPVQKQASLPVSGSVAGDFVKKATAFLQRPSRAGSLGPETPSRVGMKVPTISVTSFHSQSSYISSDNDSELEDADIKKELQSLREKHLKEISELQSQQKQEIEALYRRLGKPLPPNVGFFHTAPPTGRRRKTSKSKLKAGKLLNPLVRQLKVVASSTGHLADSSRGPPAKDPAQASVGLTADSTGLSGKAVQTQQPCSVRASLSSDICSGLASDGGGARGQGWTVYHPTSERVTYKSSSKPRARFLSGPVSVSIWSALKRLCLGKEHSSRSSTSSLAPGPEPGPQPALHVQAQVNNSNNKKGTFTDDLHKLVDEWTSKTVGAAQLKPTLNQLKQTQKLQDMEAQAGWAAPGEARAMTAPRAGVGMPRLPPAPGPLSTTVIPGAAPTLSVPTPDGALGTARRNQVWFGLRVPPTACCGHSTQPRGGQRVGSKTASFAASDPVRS
# IRAK3 = molecular target: T9, IRAK3 (Homo sapiens, UniProt Q9Y616)
# T9 construct: purchased Eurofins DiscoverX (KINOMEscan)
# SGK3 = SGK3 (Homo sapiens, UniProt Q96BR1)
# PIM3 = PIM3 (Homo sapiens, UniProt Q86V86)
# IKK-beta = molecular target: T10, IKK-beta (Homo sapiens, UniProt O14920)
# T10 construct: purchased Eurofins DiscoverX (KINOMEscan)
# PIK3CA(E545K) = PIK3CA(E545K) (Homo sapiens, UniProt P42336, E545K)
# MAP3K15 = molecular target: T11, MAP3K15 (Homo sapiens, UniProt Q6ZN16)
# T11 construct: purchased Eurofins DiscoverX Corporation
# [4] = molecular target: T12, ABL1(F317L)-nonphosphorylated (Homo sapiens, UniProt P00519, F317L)
# T12 construct: purchased Eurofins DiscoverX Corporation
# MAP3K1 = molecular target: T13, MAP3K1 (Homo sapiens, UniProt Q13233)
# T13 construct: purchased Eurofins DiscoverX Corporation
# JNK2 = molecular target: T14, JNK2 (Homo sapiens, UniProt P45984)
# T14 construct: purchased Eurofins DiscoverX (KINOMEscan)
# MEK5 = molecular target: T15, MEK5 (Homo sapiens, UniProt Q13163)
# T15 construct: purchased Eurofins DiscoverX Corporation
# [5] = molecular target: T16, ABL1(H396P)-nonphosphorylated (Homo sapiens, UniProt P00519, H396P)
# T16 construct: purchased Eurofins DiscoverX Corporation
# MLK1 = molecular target: T17, MLK1 (Homo sapiens, UniProt P80192)
# T17 construct: purchased Eurofins DiscoverX Corporation
# SBK1 = SBK1 (Homo sapiens, UniProt Q52WX2)
# MTOR = molecular target: T18, MTOR (Homo sapiens, UniProt P42345)
# T18 construct: purchased Eurofins DiscoverX Corporation
# PYK2 = PYK2 (Homo sapiens, UniProt Q14289)
# Chain of PYK2 (Q14289 whole entry): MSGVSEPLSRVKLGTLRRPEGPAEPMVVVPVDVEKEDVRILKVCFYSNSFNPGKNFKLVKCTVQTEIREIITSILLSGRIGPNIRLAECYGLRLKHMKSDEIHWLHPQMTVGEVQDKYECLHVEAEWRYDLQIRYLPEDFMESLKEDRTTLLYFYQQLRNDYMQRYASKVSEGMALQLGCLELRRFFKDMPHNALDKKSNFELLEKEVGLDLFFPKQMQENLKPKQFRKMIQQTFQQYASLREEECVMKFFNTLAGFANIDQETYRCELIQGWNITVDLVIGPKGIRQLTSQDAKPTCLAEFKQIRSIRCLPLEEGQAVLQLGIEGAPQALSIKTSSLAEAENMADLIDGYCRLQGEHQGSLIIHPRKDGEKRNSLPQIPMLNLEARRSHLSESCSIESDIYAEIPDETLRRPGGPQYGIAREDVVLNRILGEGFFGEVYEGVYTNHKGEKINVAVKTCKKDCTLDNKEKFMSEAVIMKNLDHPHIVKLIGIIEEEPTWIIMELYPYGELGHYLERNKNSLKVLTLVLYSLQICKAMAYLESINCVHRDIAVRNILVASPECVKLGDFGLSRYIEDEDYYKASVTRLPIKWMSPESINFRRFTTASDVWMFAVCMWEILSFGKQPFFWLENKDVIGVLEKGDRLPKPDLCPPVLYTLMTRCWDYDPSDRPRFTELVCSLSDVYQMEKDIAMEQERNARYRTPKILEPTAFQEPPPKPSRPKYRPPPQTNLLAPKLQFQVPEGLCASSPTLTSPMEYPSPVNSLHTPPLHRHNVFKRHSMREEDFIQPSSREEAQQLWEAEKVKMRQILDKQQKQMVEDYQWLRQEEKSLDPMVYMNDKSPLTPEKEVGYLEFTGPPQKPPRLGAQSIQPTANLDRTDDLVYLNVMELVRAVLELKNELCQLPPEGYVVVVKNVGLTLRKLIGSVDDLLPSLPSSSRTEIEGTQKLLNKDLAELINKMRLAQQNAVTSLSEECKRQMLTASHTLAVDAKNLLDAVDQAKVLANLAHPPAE
# FLT3(N841I) = molecular target: T19, FLT3(N841I) (Homo sapiens, UniProt P36888, N841I)
# T19 construct: purchased Eurofins DiscoverX Corporation
# MKNK1 = molecular target: T20, MKNK1 (Homo sapiens, UniProt Q9BUB5)
# T20 construct: purchased Eurofins DiscoverX Corporation
# T20 sequence (Q9BUB5 whole entry): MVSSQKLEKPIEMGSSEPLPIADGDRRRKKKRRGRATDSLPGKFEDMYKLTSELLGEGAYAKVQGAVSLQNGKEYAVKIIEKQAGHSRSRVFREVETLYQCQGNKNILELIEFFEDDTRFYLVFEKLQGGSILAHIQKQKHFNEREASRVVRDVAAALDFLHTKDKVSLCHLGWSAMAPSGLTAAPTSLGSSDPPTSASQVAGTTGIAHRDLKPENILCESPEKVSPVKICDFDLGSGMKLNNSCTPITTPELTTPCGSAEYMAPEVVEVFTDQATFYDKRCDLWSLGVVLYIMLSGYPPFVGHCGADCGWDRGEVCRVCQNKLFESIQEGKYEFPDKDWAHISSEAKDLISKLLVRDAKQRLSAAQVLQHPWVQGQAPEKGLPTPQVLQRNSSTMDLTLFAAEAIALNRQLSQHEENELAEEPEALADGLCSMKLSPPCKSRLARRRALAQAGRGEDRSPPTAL
# KIT(D816H) = molecular target: T21, KIT(D816H) (Homo sapiens, UniProt P10721, D816H)
# T21 construct: purchased Eurofins DiscoverX (KINOMEscan)
structure (smiles),measurement,setting,value
C=CC(=O)Nc1ccc(OC)c(Nc2cc(-c3[nH]c(CC)nc3-c3cccc(NC(=O)c4cccc5c4NC(=O)c4ccccc4N5)c3)ccn2)c1 [Compound 4],POC,TLK2,87% of control
same,POC,MARK2,85% of control
same,POC,MERTK,83% of control
same,POC,RIPK4,100% of control
same,POC,[1],72% of control
same,POC,p38-delta,100% of control
same,POC,ERK4,100% of control
same,POC,[2],96% of control
same,POC,[3],97% of control
same,POC,FLT3(D835V),100% of control
same,POC,CSNK1A1,56% of control
same,POC,EGFR(L747-T751del+Sins),7.6% of control
same,POC,BIKE,100% of control
same,POC,RIPK1,100% of control
same,POC,FLT3(D835H),92% of control
same,POC,SGK,86% of control
same,POC,CAMKK2,95% of control
same,POC,p38-alpha,46% of control
same,POC,MRCKB,1.7% of control
same,POC,MINK,10% of control
same,POC,PRKD3,67% of control
same,POC,TAOK3,95% of control
same,POC,EGFR(L747-E749del+A750P),8% of control
same,POC,WNK2,62% of control
same,POC,IRAK3,39% of control
same,POC,SGK3,90% of control
same,POC,PIM3,100% of control
same,POC,IKK-beta,88% of control
same,POC,PIK3CA(E545K),100% of control
same,POC,MAP3K15,74% of control
same,POC,[4],37% of control
same,POC,MAP3K1,100% of control
same,POC,JNK2,78% of control
same,POC,MEK5,41% of control
same,POC,[5],97% of control
same,POC,MLK1,86% of control
same,POC,SBK1,84% of control
same,POC,MTOR,100% of control
same,POC,PYK2,100% of control
same,POC,FLT3(N841I),97% of control
same,POC,MKNK1,100% of control
same,POC,KIT(D816H),39% of control
